According to patent publication US7074743B1, “Herbicidal composition comprising 4-iodo-2-[3-(4-methoxy-6-methyl-1,3,5-triazin-2-yl)ureidosulfonyl]benzoic esters” (priority 1995, dated 2006):

How the values were obtained:
Type in all cases: in vivo
Zea mays = test: Damage to crop plant ZEAMA, visual scoring vs untreated
Protocol: (§1) The examples given below were performed in the greenhouse and, in some cases, in field trials.
(§2) The herbicides, or combinations, were applied in cereals after the weeds had emerged naturally using plot sprayers. After application, the results, such as damage to the crop plants and effect on broad-leaved weeds/grass weeds were assessed by means of visual scoring. The herbicidal action was assessed qualitatively and quantitatively by comparing untreated and treated plots on the basis of the effect on plant growth and the development of chloroses and necroses down to the complete destruction of the weeds (0–100%). The application was effected when the crop plants and weeds were in the 2–4 leaf stage. The test was evaluated approximately 4 weeks after application.
(§3) In the greenhouse experiments, the crop plants and broadleaved weeds/grass weeds were grown in No. 13 pots and treated in the 2–4 leaf stage. The pots were subsequently placed in the greenhouse under good growth conditions (temperature, atmospheric humidity, water supply).
(§4) The assessments were carried out similarly to those in the field trials, i.e. visual scoring of the treated plants in comparison with untreated control variants. These assessments were carried out 3 weeks after applying the test preparations and their combinations. The experiments had been set up in two replications.

Centaurea cyanus = test: Herbicidal action on CENCY, visual scoring vs untreated, post-emergence 2-4 leaf stage
Protocol: as §1, §2, §3, §4
To assess the combination effects, the activities of the individual components were added and compared with the activity of the mixtures in equal doses. It was frequently observed that the efficacies of the combinations exceeded the total of the individual activities.
In cases with less clear effects, the expected value was calculated using Colby's formula and compared with the empirically determined result. The calculated efficacy of a combination which is expected in theory is determined is using S.R. Colby's formula: “Calculation of synergistic and antagonistic responses of herbicide combinations”, Weeds 15 (1967), pages 20 to 22.
[formula] where • X=% damage caused by herbicide A at a rate of ×kg a.i./ha; • Y=% damage caused by herbicide B at a rate of y kg a.i./ha; • Z=% damage caused by a further herbicide C at a rate of z kg a.i./ha; • E=expected value, i.e. expected damage caused by herbicides A+B (or A+B+C) at x+y (or x+y+z) kg a.i./ha.
Synergistic effects were assumed to be when the empirical value exceeded the expected value. In the case of combinations with individual components with the same active substances, comparisons via the total formula were also possible.

Ambrosia elatior = test: Herbicidal action on AMBEL, visual scoring vs untreated, post-emergence 2-4 leaf stage; conditions: Table 12; 2.5 g of ai/ha
Protocol: as §1, §2
(§5) In the greenhouse experiments, the crop plants and broadleaved weeds/grass weeds were grown in No. 13 pots and treated in the 2–4 leaf stage. […]
(§6) In cases with less clear effects, the expected value was calculated using Colby's formula and compared with the empirically determined result. The calculated efficacy of a combination which is expected in theory is determined is using S.R. Colby's formula: “Calculation of synergistic and antagonistic responses of herbicide combinations”, Weeds 15 (1967), pages 20 to 22. […]

Abuthilon theophrastis = test: Herbicidal action on ABUTHE, visual scoring vs untreated, post-emergence 2-4 leaf stage; conditions: Table 12; 2.5 g of ai/ha
Protocol: as §1, §2, §5, §6

## COC(=O)c1ccc(I)cc1S(=O)(=O)NC(=O)Nc1nc(C)nc(OC)n1.[Na] [A), sodium salt of methyl 4-iodo-2-[3-(4-methoxy-6-methyl-1,3,5-triazin-2-yl)ureidosulfonyl]benzoate]
Zea mays; Table 4, 10 g of a.i./ha
  ZEAMA % damage: 0%
Zea mays; Table 4, 20 g of a.i./ha
  ZEAMA % damage: 0%
Zea mays; Table 4, 40 g of a.i./ha
  ZEAMA % damage: 0%
Zea mays; Table 4, 80 g of a.i./ha
  ZEAMA % damage: 0%
Zea mays; Table 8, 10 g of a.i./ha
  ZEAMA % damage: 0%
Zea mays; Table 8, 20 g of a.i./ha
  ZEAMA % damage: 0%
Zea mays; Table 8, 40 g of a.i./ha
  ZEAMA % damage: 0%
Zea mays; Table 8, 80 g of a.i./ha
  ZEAMA % damage: 0%
Zea mays; Table 12, 2.5 g of ai/ha
  ZEAMA % damage: 3%
Centaurea cyanus; Table 6, 5 g of a.i./ha
  CENCY % control: 0%
Centaurea cyanus; Table 6, 10 g of a.i./ha
  CENCY % control: 30%
Centaurea cyanus; Table 6, 15 g of a.i./ha
  CENCY % control: 60%
Centaurea cyanus; Table 9, 2.5 g of a.i./ha
  CENCY % control: 30%
Centaurea cyanus; Table 9, 5 g of a.i./ha
  CENCY % control: 43%
Centaurea cyanus; Table 9, 10 g of a.i./ha
  CENCY % control: 58%
Centaurea cyanus; Table 9, 20 g of a.i./ha
  CENCY % control: 78%
Centaurea cyanus; Table 10, 5 g of a.i./ha
  CENCY % control: 0%
Centaurea cyanus; Table 10, 10 g of a.i./ha
  CENCY % control: 30%
Centaurea cyanus; Table 10, 15 g of a.i./ha
  CENCY % control: 60%
Ambrosia elatior
  AMBEL % control: 88%
Abuthilon theophrastis
  ABUTHE % control: 10%
